Here are results for two compounds from patent US20230248731A1, “COMPOSITION AND MEDICAMENT OF PALBOCICLIB ISETHIONATE” (NANJING GRITPHARMA CO., LTD., priority 2020, published 2023).

The conditions of data set [1]: background statement; cited from earlier work.
Data set [2] in a line: Solubility of palbociclib isethionate at different pH values. Format: physicochemical. The text has this:
First, the applicant has studied the solubility of palbociclib isethionate in water, a hydrochloric acid solution with a pH of 1.0, a phosphate buffer with a pH of 6.8 and an acetate buffer with a pH of 4.5 (as shown in Table 3). […] However, the palbociclib isethionate enters the intestinal tract rapidly on an empty stomach, and the pH environment becomes neutral and weakly alkaline. As the solubility of the palbociclib isethionate is extremely low at a pH of 6.8, absorption of the palbociclib isethionate will be affected by the solubility, which is extremely unfavorable to the absorption and utilization of the palbociclib isethionate.

Data set [3] in a line: Pharmacokinetics of palbociclib isethionate after single oral administration in 125 mg (Pfizer study 1036). Particulars: single oral 125 mg. The data set is classed as in vivo, human. As for the experimental part: Existing clinical tests have also shown that the palbociclib isethionate has different bioavailability values before or after a meal. Pharmacokinetics of the palbociclib isethionate in healthy subjects after single administration were evaluated by Pfizer Pharmaceutical, an original research company. Different effects are achieved when the medicine is taken before or after a meal. Compared with administration before a meal, administration after a meal has the advantages that the Cmax value is increased by 7%, and the AUCinf value is increased by about 9%. The food prolongs the retention time of the medicine in the gastric juice, so that the bioavailability is improved. The basic reason is that as the pH environment in the stomach and intestines is different, the palbociclib isethionate has inconsistent dissolution and release conditions, resulting in different bioavailability values. Therefore, when the dissolution of the palbociclib isethionate can be improved under neutral and weakly alkaline conditions, great benefits will be brought to application of the palbociclib isethionate to the treatment of related diseases in the human body.

Regarding `CC(=O)c1c(C)c2cnc(Nc3ccc(N4CCNCC4)cn3)nc2n(C2CCCC2)c1=O` [palbociclib in a free alkali form, palbociclib], in data set [1], the “Solubility in water (in words)” value is “poor solubility in water”.

For `CC(=O)c1c(C)c2cnc(Nc3ccc(N4CCNCC4)cn3)nc2n(C2CCCC2)c1=O.O=S(=O)(O)CCO` [palbociclib isethionate], the Solubility in data set [2] (acetate buffer pH 4.5) was 84.7 mg/mL; in data set [2] (hydrochloric acid solution pH 1.0) it was 90.7 mg/mL; in data set [2] (phosphate buffer pH 6.8), 0.04 mg/mL; in data set [2] (water), 84.8 mg/mL. Further, the “Solubility (in words)” value in data set [2] (pH 6.8) is “extremely low”. The “Increase of AUCinf, administration after a meal compared with before a meal” value in data set [3] is “about 9%”. Moreover, the “Increase of Cmax, administration after a meal compared with before a meal” value in data set [3] was found to be 7%.
